The values below come from patent US7049323B2, “Amidoheterocycles as modulators of the melanocortin-4 receptor” (Bristol-Myers Squibb Company, priority 2003, dated 2006).

Where only a bound is given, the exact number is not on record here.

Test [1] relates to Rodents (NPY, ob/ob, agouti, fasted feeding models). Conditions: injected intracerebroventricularly (ICV); cited from earlier work.
The subject of test [2] is male volunteers / patients with psychogenic erectile dysfunction. Conditions: cited from earlier work.
Test [3] concerns the target T1, cloned human MC4R receptors (Homo sapiens, UniProt P32245).
T1 construct: expressed in transfected cells; host or cells: Hi5 insect cells or HEK-293 cells (baculovirus/human MC4R receptor construct); membranes
The test is described as follows: Melanocortin MC4R membrane binding assay ([125I]NDP-α-MSH competition). Conditions: [125I]NDP-α-MSH 0.1 nM, membranes of Hi5 insect cells or HEK-293 cells, 90 minutes at 37° C. As to the method: Melanocortin MC4R Binding Assay. […] A membrane binding assay was used to identify competitive ligands of [^125I]NDP-α-MSH binding to cloned human MC4R receptors expressed in Hi5 insect cells or HEK-293 cells transfected by a baculovirus/human MC4R receptor construct. The membrane binding buffer was composed of 25 mM HEPES, pH 7.4, 140 mM NaCl, 1.2 mM MgCl2, 2.5 mM CaCl2, and 0.1% BSA Membrane protein (0.5 μg) and [^125I]-NDP-α-MSH (to a final concentration of 0.1 nM) were added. Competing ligands or a buffer blank were added and incubated for 90 minutes at 37° C. After filtration, the cell membranes were evaluated in a Wallac Microbeta Trilux Scintillation and Luminescence Counter (Model 1450). Dose-response cureves were fitted by […] analyses and IC50 values are calculated using ExcelFit.

[4] abbreviates: intramuscular, 0.005–0.03 mg/kg, three normal male volunteers.

T1 sequence (P32245 whole entry): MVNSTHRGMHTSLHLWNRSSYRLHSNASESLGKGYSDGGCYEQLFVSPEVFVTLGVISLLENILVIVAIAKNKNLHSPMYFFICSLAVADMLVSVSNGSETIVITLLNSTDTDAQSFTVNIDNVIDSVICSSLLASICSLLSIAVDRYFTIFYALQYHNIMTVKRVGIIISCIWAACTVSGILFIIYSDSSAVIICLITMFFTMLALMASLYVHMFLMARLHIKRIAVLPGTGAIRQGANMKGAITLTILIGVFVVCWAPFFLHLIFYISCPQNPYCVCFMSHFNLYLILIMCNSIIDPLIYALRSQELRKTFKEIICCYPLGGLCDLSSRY

Turning to melanotan-II [MT-II], in test [1], the food intake result is recorded as “reduced food intake”. Also, in test [2] (setting [4]), the penile erections result is recorded as “caused intermittent non-painful penile erections” and the “period of erections after dosing” value was 1 to 5 h. The erections result in test [2] (subcutaneous, 0.025 mg/kg and 0.1 mg/kg, 10 patients with psychogenic erectile dysfunction) was “caused transient erections”. The responders in test [2] (subcutaneous, 0.025 mg/kg and 0.1 mg/kg, of 10 patients with psychogenic erectile dysfunction) is listed as 8. Also, the onset of erections in test [2] (subcutaneous, 0.025 mg/kg and 0.1 mg/kg, patients with psychogenic erectile dysfunction) is 50 to 180 min.
Take SHU-9119: the food intake entry in test [1] is “reverses this effect and can induce hyperphagia”.
Compound `NCCC(=O)N[C@H](Cc1ccc(Cl)cc1)C(=O)N1CC[C@H](N(C(=O)c2ccco2)C2CCCCC2)C1` [Example 26] had a half-maximal inhibitory concentration (IC50) in test [3] below 0.25 µM.
Consider `CN(C)CCC(=O)N[C@H](Cc1ccc(Cl)cc1)C(=O)N1CC(N(C(=O)CC2CCCC2)C2CCCCC2)C1` [Example 8], for which the IC50 in test [3] was in the range of 0.25 to 1 µM.
On to `NCCC(=O)N[C@H](Cc1ccc(Cl)cc1)C(=O)N1CC[C@H](N(C(=O)c2cnccn2)C2CCCCC2)C1` [Example 28], for which the concentration for half-maximal inhibition (IC50) in test [3] lay within 0.25 to 1 µM.
`NCCC(=O)N[C@H](Cc1ccc(Cl)cc1)C(=O)N1CC[C@H](N(C(=O)CC2CCCC2)C2CCCCC2)C1` [Example 33] came in with an IC50 in test [3] below 0.25 µM.
`CN(C)CCC(=O)N[C@H](Cc1ccc(Cl)cc1)C(=O)N1CC(N(C(=O)Cc2ccccc2)C2CCCCC2)C1` [Example 10] returned a 50% inhibitory concentration (IC50) in test [3] of 0.25 to 1 µM.
Same read-out and setting: to `CC(C)N(C(=O)c1ccco1)[C@H]1CCN(C(=O)[C@@H](Cc2ccc(Cl)cc2)NC(=O)[C@H]2Cc3ccccc3CN2)C1` [Example 38] belongs 0.25 to 1 µM; to `CN(C)CCC(=O)N[C@H](Cc1ccc(Cl)cc1)C(=O)N1CC[C@H](N(C(=O)c2ccco2)C2CCCC2)C1` [Example 64], 0.25 to 1 µM; to `CC(C)CC(=O)N(C1CCCCC1)C1CN(C(=O)[C@@H](Cc2ccc(Cl)cc2)NC(=O)CCN(C)C)C1` [Example 14], below 0.25 µM.
